Test results published in publication PMC10030075 (Medicinal Chemistry Research, 2023).

Experiments:
[1] = in vitro; conditions: human, microsomes, pH 7.4
[2] = in vitro; conditions: human, microsomes, pH 7.4; remark: listed apart in the source
[3] = system: HBV; experiment: Preliminary screening of anti-HBV activity; format: cell-based, hepatitis B virus; conditions: inhibition of HBsAg and HBeAg expression, HepG2.2.15 cells
[4] = system: hepatic fibrosis; conditions: 50 mg/kg or 100 mg/kg, by increasing phospho-FOXO1 expression; cited from earlier work
[5] = system: Newcastle disease virus; conditions: cited from earlier work
[6] = system: duck hepatitis B virus; conditions: in vivo; cited from earlier work

SMILES | half-life [1] [h] | half-life [2] [h] | anti-HBV activity (in words) [3] | hepatic fibrosis [4] | Newcastle disease virus replication [5] | levels of HBsAg and HBeAg in duck serum [6]
C[C@]12CC[C@H]3[C@@H](CCC4=CC(=O)CC[C@@]43C)[C@@H]1CC[C@@H]2O [testosterone, reference compound] | 0.4 | – | – | – | – | –
O=c1ccc2ccc(O)cc2o1 [7-hydroxycoumarin, reference compound] | – | 0.263 | – | – | – | –
Cc1nccn1CCCCCCOc1cc2oc(=O)ccc2cc1O [Compound 6d, 6-Hydroxyl-7-(6-(2-methylimidazole-1-yl)hexyloxy)-2H-benzopyran-2-one] | > 5 | > 5 | – | – | – | –
Cc1nccn1CCCCOc1cc2oc(=O)ccc2cc1O [Compound 6b, 6-Hydroxyl-7-(4-(2-methylimidazole-1-yl)butoxy)-2H-benzopyran-2-one] | > 5 | > 5 | moderate anti-HBV activity | – | – | –
Cc1nccn1CCCCCOc1cc2oc(=O)ccc2cc1O [Compound 6c, 6-Hydroxyl-7-(5-(2-methylimidazole-1-yl)pentyloxy)-2H-benzopyran-2-one] | > 5 | > 5 | moderate anti-HBV activity | – | – | –
O=c1ccc2cc(O)c(O)cc2o1 [Esculetin, 6,7-dihydroxy-2-H-1-benzopyran-2-one] | – | – | – | improvement in hepatic fibrosis | inhibited Newcastle disease virus replication well | can reduce the levels of HBsAg and hepatitis B e antigen (HBeAg) in duck serum
